According to patent publication US12122756B2, “Biflavone compound against I-type herpes simplex virus, and preparation method therefor and use thereof” (priority 2022, dated 2024):
Read-outs that look alike come from different tables or passages of the source. Marks after values point to notes of the source that are not given here.

Assays:
HSV-I = test: Cytopathic effect (CPE) assay: inhibition of pathological changes of Vero cells induced by HSV-I (CCK-8); format: cell-based, Herpes simplex virus type I; conditions: for inhibitory effect on HSV-I induced cytopathic changes (in words): CPE method; for Inhibition rate (%) / OD value: n = 5
Method: (1) Determination of the inhibitory activities of the test drugs on pathological changes of Vero cells induced by HSV-I using the cytopathic effect (CPE) assay: Vero cells were seeded in a 96-well plate and grew into a monolayer the next day. 100TCID50 HSV-I was added to infect cells, and then the cell maintenance solution containing different concentrations of the test drug was replaced, and a cell control group was included. The cells were cultured in an incubator for 72 hours. Then, the inhibitory effect of the drug on virus-induced cytopathic changes was measured using the CCK-8 assay, and thus the 50% inhibiting concentration (IC50) of the drug was calculated.

Vero cells = test: Cytotoxic assay of tested drugs against Vero cells (CCK-8); format: cell-based, African green monkey; conditions: for highest non-toxic concentration: Vero cells, CCK-8
Method: 3. Cytotoxic assay of tested drugs against Vero cells: Vero cells were seed in a 96 well plate at 3×10^4 cells/well. The next day, after growing into a monolayer, the test drug was diluted to obtain 8-9 concentrations and added to each well. Meanwhile, a normal control group was established, with 4 replicate wells for each group. After 72 hours, the toxicity of the test drug to Vero cells was measured using CCK-8 assay, and the highest non-toxic concentration and half toxic concentration (TC50) of the drug on the cells were calculated.

[1] = Solubility (highest solubility used as starting concentration; water solubility)
[2] = Concentration 1 (3 concentrations, 50% dilution based on highest non-toxic concentration)
[3] = 1st (highest) concentration (971, 1600, 2620, 390 μg·ml^−1 for Compounds 1-4), 72 h
[4] = 2nd concentration, 50% serial dilution from column-head concentration, 72 h
[5] = 3rd concentration, 50% serial dilution from column-head concentration, 72 h
[6] = 4th concentration, 50% serial dilution from column-head concentration, 72 h
[7] = 5th concentration, 50% serial dilution from column-head concentration, 72 h
[8] = 6th concentration, 50% serial dilution from column-head concentration, 72 h
[9] = 7th concentration, 50% serial dilution from column-head concentration, 72 h
[10] = 8th concentration, 50% serial dilution from column-head concentration, 72 h
[11] = 9th concentration, 50% serial dilution from column-head concentration, 72 h

SMILES: COc1c(O)cc2occ(-c3ccc(O)c(S(=O)(=O)[O-])c3)c(=O)c2c1O.[Na+] [Compound 1, sodium tectorigenin-5′-sulphonate]
- inhibitory effect on HSV-I induced cytopathic changes (in words) (HSV-I): the effect was not significant
- Inhibition rate (%) (HSV-I; [2]): 4.41%
- OD value (HSV-I; [2]): 0.37 ± 0.04
- Inhibition rate (%) (HSV-I; Concentration 2): 3.29%
- OD value (HSV-I; Concentration 2): 0.37 ± 0.02
- Inhibition rate (%) (HSV-I; Concentration 3): 2.26%
- OD value (HSV-I; Concentration 3): 0.36 ± 0.03
- TC50 on Vero cells (Vero cells): 390.312 µg/mL
- growth inhibition rate (%) on Vero cells (Vero cells; [3]): 57.86** %
- growth inhibition rate (%) on Vero cells (Vero cells; [4]): 49.99** %
- growth inhibition rate (%) on Vero cells (Vero cells; [5]): 42.06** %
- growth inhibition rate (%) on Vero cells (Vero cells; [6]): 39.97** %
- growth inhibition rate (%) on Vero cells (Vero cells; [7]): 34.95** %
- growth inhibition rate (%) on Vero cells (Vero cells; [8]): 28.48** %
- growth inhibition rate (%) on Vero cells (Vero cells; [9]): 27.14** %
- growth inhibition rate (%) on Vero cells (Vero cells; [10]): 25.37** %
- growth inhibition rate (%) on Vero cells (Vero cells; [11]): −1.57%

SMILES: CCOc1ccc(-c2coc3cc(OCC)c(OC)c(O)c3c2=O)cc1S(=O)(=O)[O-].[Na+] [Compound 3, sodium 4,7′-diethyltectorigenin-5′-sulphonate]
- inhibitory effect on HSV-I induced cytopathic changes (in words) (HSV-I): no significant inhibitory effect
- Inhibition rate (%) (HSV-I; [2]): 6.20%
- OD value (HSV-I; [2]): 0.38 ± 0.05
- Inhibition rate (%) (HSV-I; Concentration 2): 8.65%
- OD value (HSV-I; Concentration 2): 0.39 ± 0.10
- Inhibition rate (%) (HSV-I; Concentration 3): 4.09%
- OD value (HSV-I; Concentration 3): 0.37 ± 0.03
- growth inhibition rate (%) on Vero cells (Vero cells; [3]): 45.06** %
- growth inhibition rate (%) on Vero cells (Vero cells; [4]): 40.80** %
- growth inhibition rate (%) on Vero cells (Vero cells; [5]): 36.94** %
- growth inhibition rate (%) on Vero cells (Vero cells; [6]): 34.23** %
- growth inhibition rate (%) on Vero cells (Vero cells; [7]): 32.36** %
- growth inhibition rate (%) on Vero cells (Vero cells; [8]): 27.12** %
- growth inhibition rate (%) on Vero cells (Vero cells; [9]): 25.55** %
- growth inhibition rate (%) on Vero cells (Vero cells; [10]): 22.06** %
- growth inhibition rate (%) on Vero cells (Vero cells; [11]): −0.24%
- TC50 on Vero cells (Vero cells; 72 h, CCK-8, Probit regression): 3020.44 µg/mL
- highest non-toxic concentration (Vero cells; 72 h): 3.496 µg/mL
- solubility [1]: 2620 µg/mL

SMILES: CCOc1ccc(-c2coc3c(Cc4c(OCC)c(OC)c(O)c5c(=O)c(-c6ccc(OCC)c(S(=O)(=O)[O-])c6)coc45)c(OCC)c(OC)c(O)c3c2=O)cc1S(=O)(=O)[O-].[Na+].[Na+] [Compound 4, sodium 8,8″-methylene-di-(4,7′-diethyltectorigenin-5′-sulphonate)]
- inhibitory effect on HSV-I induced cytopathic changes (in words) (HSV-I): no significant inhibitory effect
- Inhibition rate (%) (HSV-I; [2]): 5.96%
- OD value (HSV-I; [2]): 0.32 ± 0.02
- Inhibition rate (%) (HSV-I; Concentration 2): 6.09%
- OD value (HSV-I; Concentration 2): 0.32 ± 0.01
- Inhibition rate (%) (HSV-I; Concentration 3): 5.99%
- OD value (HSV-I; Concentration 3): 0.32 ± 0.01
- growth inhibition rate (%) on Vero cells (Vero cells; [3]): 28.40** %
- growth inhibition rate (%) on Vero cells (Vero cells; [4]): 27.54** %
- growth inhibition rate (%) on Vero cells (Vero cells; [5]): 26.53** %
- growth inhibition rate (%) on Vero cells (Vero cells; [6]): 23.48** %
- growth inhibition rate (%) on Vero cells (Vero cells; [7]): 22.02** %
- growth inhibition rate (%) on Vero cells (Vero cells; [8]): 18.43** %
- growth inhibition rate (%) on Vero cells (Vero cells; [9]): 14.94** %
- growth inhibition rate (%) on Vero cells (Vero cells; [10]): 9.42%
- growth inhibition rate (%) on Vero cells (Vero cells; [11]): −23.23%
- TC50 on Vero cells (Vero cells; 72 h, CCK-8, Probit regression): 11308.7 µg/mL
- highest non-toxic concentration (Vero cells; 72 h): 0.864 µg/mL
- solubility [1]: 390 µg/mL
